Data as given in patent US20160367623A1, “AGONISTS OF GUANYLATE CYCLASE USEFUL FOR THE TREATMENT OF GASTROINTESTINAL DISORDERS, INFLAMMATION, CANCER AND OTHER DISORDERS” (priority 2015, published 2016).
Bridge positions count the residues as written; N and C are the ends. Ends that are not written are not given here.

System: patients with chronic idiopathic constipation (CIC)
Assay: Second phase 3 CIC trial: CSBM weekly responders by week
Format: in vivo, human
Details: MRA
Description: Both trials include a two-week pre-treatment baseline period, a 12-week treatment period, and a two-week post-treatment period. The phase 3 CIC program was designed to support regulatory submission in the U. S.
The primary endpoint for both trials is the proportion of durable overall responders (%), which is the current regulatory endpoint required for U.S. approval in CIC. The FDA has defined a durable overall responder as a patient who fulfills both ≧3 complete spontaneous bowel movements (CSBMs) per week plus an increase of ≧1 CSBM from baseline in the same week, for 9 out of the 12 treatment weeks. In addition, the same patient must be an overall responder for at least 3 of the last 4 treatment weeks in order to be considered a durable overall responder.
Patients were selected using Rome 3 criteria modified for CIC and had (1) fewer than 3 defecations per week, (2) loose stools occurring rarely without laxatives, (3) inadequate criteria for irritable bowel syndrome with constipation (IBS-C), and (4) at least two of the following applied to at least 25% of defecations: (a) straining during evacuation, (b) lumpy or hard stools, (c) sensation of anorectal obstruction or blockage. Rome 3 requires patients to fulfill the criteria for the last 3 months with symptom onset at least 6 months prior to diagnosis.

[1] = Week 2, 6 mg, ITT Population-Excluding Duplicate Patients
[2] = Week 2, Active Combined, ITT Population-Excluding Duplicate Patients
[3] = Week 2, Active Combined, ITT Population
[4] = Week 3, 3 mg, ITT Population-Excluding Duplicate Patients
[5] = Week 3, 6 mg, ITT Population-Excluding Duplicate Patients
[6] = Week 3, Active Combined, ITT Population-Excluding Duplicate Patients
[7] = Week 3, Active Combined, ITT Population
[8] = Week 4, 3 mg, ITT Population-Excluding Duplicate Patients
[9] = Week 4, 6 mg, ITT Population-Excluding Duplicate Patients
[10] = Week 4, Active Combined, ITT Population-Excluding Duplicate Patients
[11] = Week 4, Active Combined, ITT Population
[12] = Week 5, 3 mg, ITT Population-Excluding Duplicate Patients
[13] = Week 5, 6 mg, ITT Population-Excluding Duplicate Patients
[14] = Week 5, Active Combined, ITT Population-Excluding Duplicate Patients

Asn^1-Asp^2-Glu^3-Cys^4-Glu^5-Leu^6-Cys^7-Val^8-Asn^9-Val^10-Ala^11-Cys^12-Thr^13-Gly^14-Cys^15-Leu^16 (NDECELCVNVACTGCL; disulfide 4-12, 7-15) [Plecanatide, uroguanylin analogue, guanylate cyclase-C agonist; (C4:C12, C7:C15) bicycle peptide]
Difference in Proportions (adjusted) (Week 2, 6 mg minus placebo, All Randomized (includes Duplicate Patients)): 0.114 | Odds Ratio (adjusted) (Week 2, 6 mg vs placebo, All Randomized (includes Duplicate Patients)): 0.513 | CSBM Weekly Responders, n (%) (Week 2, 6 mg, All Randomized (includes Duplicate Patients)): 132 (28.0) n (%) | CSBM Weekly Responders, n (%) (Week 2, 6 mg, ITT Population): 123 (27.4) n (%) | Non-Responders, n (%) (Week 2, 6 mg, ITT Population): 326 (72.6) n (%) | CSBM Weekly Responders, n (%) [1]: 123 (27.8) n (%) | Non-Responders, n (%) [1]: 320 (72.2) n (%) | CSBM Weekly Responders, n (%) (Week 2, Active Combined, All Randomized (includes Duplicate Patients)): 252 (26.8) n (%) | Difference in Proportions (adjusted) (Week 2, 3 mg minus placebo, ITT Population-Excluding Duplicate Patients): 0.086 | Difference in Proportions (adjusted) (Week 2, 3 mg minus placebo, ITT Population): 0.087 | Odds Ratio (adjusted) (Week 2, 3 mg vs placebo, ITT Population-Excluding Duplicate Patients): 0.592 | Odds Ratio (adjusted) (Week 2, 3 mg vs placebo, ITT Population): 0.59 | Difference in Proportions (adjusted) (Week 2, 6 mg minus placebo, ITT Population-Excluding Duplicate Patients): 0.111 | Difference in Proportions (adjusted) (Week 2, 6 mg minus placebo, ITT Population): 0.108 | Odds Ratio (adjusted) (Week 2, 6 mg vs placebo, ITT Population-Excluding Duplicate Patients): 0.523 | Odds Ratio (adjusted) (Week 2, 6 mg vs placebo, ITT Population): 0.53 | CSBM Weekly Responders, n (%) [2]: 233 (26.6) n (%) | Non-Responders, n (%) [2]: 644 (73.4) n (%) | CSBM Weekly Responders, n (%) [3]: 235 (26.3) n (%) | Non-Responders, n (%) [3]: 657 (73.7) n (%) | Difference in Proportions (adjusted) (Week 3, 3 mg minus placebo, All Randomized (includes Duplicate Patients)): 0.070 | Odds Ratio (adjusted) (Week 3, 3 mg vs placebo, All Randomized (includes Duplicate Patients)): 0.691 | CSBM Weekly Responders, n (%) (Week 3, 3 mg, All Randomized (includes Duplicate Patients)): 135 (28.7) n (%) | CSBM Weekly Responders, n (%) (Week 3, 3 mg, ITT Population): 125 (28.2) n (%) | Non-Responders, n (%) (Week 3, 3 mg, ITT Population): 318 (71.8) n (%) | CSBM Weekly Responders, n (%) [4]: 122 (28.1) n (%) | Non-Responders, n (%) [4]: 312 (71.9) n (%) | Difference in Proportions (adjusted) (Week 3, 6 mg minus placebo, All Randomized (includes Duplicate Patients)): 0.056 | Odds Ratio (adjusted) (Week 3, 6 mg vs placebo, All Randomized (includes Duplicate Patients)): 0.738 | CSBM Weekly Responders, n (%) (Week 3, 6 mg, ITT Population): 120 (26.7) n (%) | Non-Responders, n (%) (Week 3, 6 mg, ITT Population): 329 (73.3) n (%) | CSBM Weekly Responders, n (%) [5]: 119 (26.9) n (%) | Non-Responders, n (%) [5]: 324 (73.1) n (%) | Difference in Proportions (adjusted) (Week 3, 3 mg minus placebo, ITT Population-Excluding Duplicate Patients): 0.054 | Difference in Proportions (adjusted) (Week 3, 3 mg minus placebo, ITT Population): 0.057 | Odds Ratio (adjusted) (Week 3, 3 mg vs placebo, ITT Population-Excluding Duplicate Patients): 0.750 | Odds Ratio (adjusted) (Week 3, 3 mg vs placebo, ITT Population): 0.739 | Difference in Proportions (adjusted) (Week 3, 6 mg minus placebo, ITT Population-Excluding Duplicate Patients): 0.042 | Difference in Proportions (adjusted) (Week 3, 6 mg minus placebo, ITT Population): 0.043 | Odds Ratio (adjusted) (Week 3, 6 mg vs placebo, ITT Population-Excluding Duplicate Patients): 0.798 | Odds Ratio (adjusted) (Week 3, 6 mg vs placebo, ITT Population): 0.796 | CSBM Weekly Responders, n (%) [6]: 241 (27.5) n (%) | Non-Responders, n (%) [6]: 636 (72.5) n (%) | CSBM Weekly Responders, n (%) [7]: 245 (27.5) n (%) | Non-Responders, n (%) [7]: 647 (72.5) n (%) | Difference in Proportions (adjusted) (Week 4, 3 mg minus placebo, All Randomized (includes Duplicate Patients)): 0.093 | Odds Ratio (adjusted) (Week 4, 3 mg vs placebo, All Randomized (includes Duplicate Patients)): 0.611 | CSBM Weekly Responders, n (%) (Week 4, 3 mg, ITT Population): 132 (29.8) n (%) | Non-Responders, n (%) (Week 4, 3 mg, ITT Population): 311 (70.2) n (%) | CSBM Weekly Responders, n (%) [8]: 130 (30.0) n (%) | Non-Responders, n (%) [8]: 304 (70.0) n (%) | Difference in Proportions (adjusted) (Week 4, 6 mg minus placebo, All Randomized (includes Duplicate Patients)): 0.082 | Odds Ratio (adjusted) (Week 4, 6 mg vs placebo, All Randomized (includes Duplicate Patients)): 0.644 | CSBM Weekly Responders, n (%) (Week 4, 6 mg, ITT Population): 127 (28.3) n (%) | Non-Responders, n (%) (Week 4, 6 mg, ITT Population): 322 (71.7) n (%) | CSBM Weekly Responders, n (%) [9]: 126 (28.4) n (%) | Non-Responders, n (%) [9]: 317 (71.6) n (%) | Difference in Proportions (adjusted) (Week 4, 3 mg minus placebo, ITT Population-Excluding Duplicate Patients): 0.082 | Difference in Proportions (adjusted) (Week 4, 3 mg minus placebo, ITT Population): 0.082 | Odds Ratio (adjusted) (Week 4, 3 mg vs placebo, ITT Population-Excluding Duplicate Patients): 0.650 | Odds Ratio (adjusted) (Week 4, 3 mg vs placebo, ITT Population): 0.648 | Difference in Proportions (adjusted) (Week 4, 6 mg minus placebo, ITT Population-Excluding Duplicate Patients): 0.067 | Difference in Proportions (adjusted) (Week 4, 6 mg minus placebo, ITT Population): 0.067 | Odds Ratio (adjusted) (Week 4, 6 mg vs placebo, ITT Population-Excluding Duplicate Patients): 0.698 | Odds Ratio (adjusted) (Week 4, 6 mg vs placebo, ITT Population): 0.697 | CSBM Weekly Responders, n (%) [10]: 256 (29.2) n (%) | Non-Responders, n (%) [10]: 621 (70.8) n (%) | CSBM Weekly Responders, n (%) [11]: 259 (29.0) n (%) | Non-Responders, n (%) [11]: 633 (71.0) n (%) | Difference in Proportions (adjusted) (Week 5, 3 mg minus placebo, All Randomized (includes Duplicate Patients)): 0.119 | Odds Ratio (adjusted) (Week 5, 3 mg vs placebo, All Randomized (includes Duplicate Patients)): 0.560 | CSBM Weekly Responders, n (%) (Week 5, 3 mg, ITT Population): 154 (34.8) n (%) | Non-Responders, n (%) (Week 5, 3 mg, ITT Population): 289 (65.2) n (%) | CSBM Weekly Responders, n (%) [12]: 153 (35.3) n (%) | Non-Responders, n (%) [12]: 281 (64.7) n (%) | Difference in Proportions (adjusted) (Week 5, 6 mg minus placebo, All Randomized (includes Duplicate Patients)): 0.061 | Odds Ratio (adjusted) (Week 5, 6 mg vs placebo, All Randomized (includes Duplicate Patients)): 0.731 | CSBM Weekly Responders, n (%) (Week 5, 6 mg, ITT Population): 133 (29.6) n (%) | Non-Responders, n (%) (Week 5, 6 mg, ITT Population): 316 (70.4) n (%) | CSBM Weekly Responders, n (%) [13]: 132 (29.8) n (%) | Non-Responders, n (%) [13]: 311 (70.2) n (%) | Difference in Proportions (adjusted) (Week 5, 3 mg minus placebo, ITT Population-Excluding Duplicate Patients): 0.107 | Difference in Proportions (adjusted) (Week 5, 3 mg minus placebo, ITT Population): 0.105 | Odds Ratio (adjusted) (Week 5, 3 mg vs placebo, ITT Population-Excluding Duplicate Patients): 0.596 | Odds Ratio (adjusted) (Week 5, 3 mg vs placebo, ITT Population): 0.602 | Difference in Proportions (adjusted) (Week 5, 6 mg minus placebo, ITT Population-Excluding Duplicate Patients): 0.053 | Difference in Proportions (adjusted) (Week 5, 6 mg minus placebo, ITT Population): 0.054 | Odds Ratio (adjusted) (Week 5, 6 mg vs placebo, ITT Population-Excluding Duplicate Patients): 0.764 | Odds Ratio (adjusted) (Week 5, 6 mg vs placebo, ITT Population): 0.762 | CSBM Weekly Responders, n (%) [14]: 285 (32.5) n (%) | Non-Responders, n (%) [14]: 592 (67.5) n (%) | CSBM Weekly Responders, n (%) (Week 5, Active Combined, ITT Population): 287 (32.2) n (%)
